A short description of assay [1]: Cytotoxicity against human HCT15 cells assessed as cell viability at 10 uM after 72 hrs by sulforhodamine B assay relative to control. The settings on record: HCT-15, 72 h, read-out: Activity. It counts as functional. (In general: In SRB staining, fixed cells bind dye roughly in proportion to their protein.)
Assay [2] in a line: Cytotoxicity against human NUGC3 cells assessed as growth inhibition after 72 hrs by sulforhodamine B assay. It counts as functional. The settings on record: NUGC-3, 72 h.
Assay [3] has as its system NCI-H23. The assay can be described thus: Cytotoxicity against human NCI-H23 cells assessed as growth inhibition after 72 hrs by sulforhodamine B assay. The settings on record: NCI-H23, 72 h. It counts as functional.
Assay [4] is described as follows: Cytotoxicity against human PC3 cells assessed as cell viability at 10 uM after 72 hrs by sulforhodamine B assay relative to control. The settings on record: PC-3, 72 h, read-out: Activity. It counts as functional.
Assay [5] relates to MDA-MB-231. The assay can be described thus: Cytotoxicity against human MDA-MB-231 cells assessed as cell viability at 10 uM after 72 hrs by sulforhodamine B assay relative to control. The settings on record: MDA-MB-231, 72 h, read-out: Activity. It counts as functional.
Assay [6] can be described thus: Cytotoxicity against human NUGC3 cells assessed as cell viability at 10 uM after 72 hrs by sulforhodamine B assay relative to control. It counts as functional. The settings on record: NUGC-3, 72 h, read-out: Activity.
The subject of assay [7] is NCI-H23. The assay can be described thus: Cytotoxicity against human NCI-H23 cells assessed as cell viability at 10 uM after 72 hrs by sulforhodamine B assay relative to control. The settings on record: NCI-H23, 72 h, read-out: Activity. It counts as functional.
In assay [8] the test system is ACHN. The assay can be described thus: Cytotoxicity against human ACHN cells assessed as cell viability at 10 uM after 72 hrs by sulforhodamine B assay relative to control. It counts as functional. The settings on record: read-out: Activity.
Assay [9] concerns ACHN. Nature of the assay: Cytotoxicity against human ACHN cells assessed as growth inhibition after 72 hrs by sulforhodamine B assay. It counts as functional.
For assay [10], the system named is MDA-MB-231. The assay can be described thus: Cytotoxicity against human MDA-MB-231 cells assessed as growth inhibition after 72 hrs by sulforhodamine B assay. It counts as functional. The settings on record: MDA-MB-231, 72 h.
Assay [11] in a line: Cytotoxicity against human HCT15 cells assessed as growth inhibition after 72 hrs by sulforhodamine B assay. It counts as functional. The settings on record: HCT-15, 72 h.
Assay [12] can be described thus: Cytotoxicity against human PC3 cells assessed as growth inhibition after 72 hrs by sulforhodamine B assay. The settings on record: PC-3, 72 h. It counts as functional.
The target of assay [13] is Nuclear factor NF-kappa-B complex (Homo sapiens) (UniProt Q00653+P19838+Q04206). Nature of the assay: Inhibition of NF-kappaB (unknown origin) transcriptional activity in LPS-induced mouse RAW264.7 cells at 30 uM after 1 hr by secreted alkaline phosphatase assay relative to control. It counts as cell-based.
Sequence of Nuclear factor NF-kappa-B complex (Homo sapiens) (P19838 whole entry, looked up): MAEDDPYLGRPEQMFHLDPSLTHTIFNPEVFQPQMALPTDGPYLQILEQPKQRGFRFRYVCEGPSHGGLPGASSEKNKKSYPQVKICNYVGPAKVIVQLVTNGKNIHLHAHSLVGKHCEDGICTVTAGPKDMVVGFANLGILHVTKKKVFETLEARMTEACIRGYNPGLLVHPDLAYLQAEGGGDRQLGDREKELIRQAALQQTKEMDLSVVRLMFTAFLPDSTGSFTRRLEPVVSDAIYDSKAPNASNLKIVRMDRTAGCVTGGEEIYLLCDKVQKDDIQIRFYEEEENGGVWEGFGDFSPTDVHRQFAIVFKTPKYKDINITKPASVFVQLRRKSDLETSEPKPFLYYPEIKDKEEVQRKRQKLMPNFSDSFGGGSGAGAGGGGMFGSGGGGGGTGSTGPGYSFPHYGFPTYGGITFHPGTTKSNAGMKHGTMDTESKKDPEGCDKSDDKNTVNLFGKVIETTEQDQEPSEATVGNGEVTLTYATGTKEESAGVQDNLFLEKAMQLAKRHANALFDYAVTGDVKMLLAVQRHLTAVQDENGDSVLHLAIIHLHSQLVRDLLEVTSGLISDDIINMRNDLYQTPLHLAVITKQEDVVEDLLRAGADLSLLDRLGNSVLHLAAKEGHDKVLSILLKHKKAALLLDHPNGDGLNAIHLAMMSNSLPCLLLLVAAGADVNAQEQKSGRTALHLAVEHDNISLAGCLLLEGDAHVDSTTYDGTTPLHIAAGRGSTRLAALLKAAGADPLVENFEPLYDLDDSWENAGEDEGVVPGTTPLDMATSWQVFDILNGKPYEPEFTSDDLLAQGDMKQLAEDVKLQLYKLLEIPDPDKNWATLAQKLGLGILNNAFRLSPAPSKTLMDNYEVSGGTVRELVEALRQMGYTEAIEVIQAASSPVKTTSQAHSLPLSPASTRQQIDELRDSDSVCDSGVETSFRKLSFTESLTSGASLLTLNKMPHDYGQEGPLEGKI
Sequence of Nuclear factor NF-kappa-B complex (Homo sapiens) (Q00653 whole entry, looked up): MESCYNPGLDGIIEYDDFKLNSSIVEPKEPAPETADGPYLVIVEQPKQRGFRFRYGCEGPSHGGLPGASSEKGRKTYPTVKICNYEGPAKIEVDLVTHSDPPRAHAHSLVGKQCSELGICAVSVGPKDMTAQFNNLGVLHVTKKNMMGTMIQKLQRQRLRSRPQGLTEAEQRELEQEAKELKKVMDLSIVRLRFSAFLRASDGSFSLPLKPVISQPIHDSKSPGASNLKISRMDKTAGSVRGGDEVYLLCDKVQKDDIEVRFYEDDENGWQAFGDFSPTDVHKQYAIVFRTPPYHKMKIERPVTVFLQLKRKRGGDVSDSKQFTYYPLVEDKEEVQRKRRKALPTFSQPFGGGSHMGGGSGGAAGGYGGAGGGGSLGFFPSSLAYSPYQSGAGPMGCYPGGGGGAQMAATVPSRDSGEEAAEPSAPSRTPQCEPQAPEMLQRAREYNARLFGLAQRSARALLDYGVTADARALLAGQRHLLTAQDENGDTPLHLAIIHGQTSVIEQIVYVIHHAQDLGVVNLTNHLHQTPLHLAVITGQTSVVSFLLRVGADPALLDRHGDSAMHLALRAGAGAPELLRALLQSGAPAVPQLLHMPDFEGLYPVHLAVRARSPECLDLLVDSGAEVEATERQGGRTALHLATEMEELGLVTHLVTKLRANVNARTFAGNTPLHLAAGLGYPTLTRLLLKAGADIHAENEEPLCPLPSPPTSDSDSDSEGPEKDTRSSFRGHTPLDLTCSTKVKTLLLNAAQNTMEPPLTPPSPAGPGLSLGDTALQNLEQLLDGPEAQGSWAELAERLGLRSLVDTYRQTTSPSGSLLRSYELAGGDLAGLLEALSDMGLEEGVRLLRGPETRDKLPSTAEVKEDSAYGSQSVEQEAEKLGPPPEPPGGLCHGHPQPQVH
Sequence of Nuclear factor NF-kappa-B complex (Homo sapiens) (Q04206 whole entry, looked up): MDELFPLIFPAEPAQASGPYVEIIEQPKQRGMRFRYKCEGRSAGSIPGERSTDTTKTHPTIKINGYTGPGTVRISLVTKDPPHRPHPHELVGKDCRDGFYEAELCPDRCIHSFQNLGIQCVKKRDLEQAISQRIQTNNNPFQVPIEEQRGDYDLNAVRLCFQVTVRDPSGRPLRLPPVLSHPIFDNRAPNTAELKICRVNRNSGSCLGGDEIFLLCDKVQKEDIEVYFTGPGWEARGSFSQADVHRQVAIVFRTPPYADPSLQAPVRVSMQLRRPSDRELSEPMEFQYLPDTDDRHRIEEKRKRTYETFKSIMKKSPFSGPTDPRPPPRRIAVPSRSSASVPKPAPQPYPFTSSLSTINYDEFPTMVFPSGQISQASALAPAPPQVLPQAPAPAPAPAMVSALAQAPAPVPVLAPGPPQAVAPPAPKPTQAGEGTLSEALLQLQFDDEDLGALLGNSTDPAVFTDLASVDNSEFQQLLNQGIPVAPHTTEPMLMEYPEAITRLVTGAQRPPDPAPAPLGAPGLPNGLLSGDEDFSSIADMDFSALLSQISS
Assay [14] has as its target Nuclear factor NF-kappa-B complex (Homo sapiens, UniProt P19838+Q00653+Q04206). Nature of the assay: Inhibition of NF-kappaB (unknown origin) transcriptional activity in LPS-induced mouse RAW264.7 cells after 1 hr by secreted alkaline phosphatase assay. It counts as cell-based.

Broadly, the GI50 is the concentration giving 50% growth inhibition. As usually defined, the inhibition is the percentage by which the read-out fell short of the control. In general, IC50 refers to the point on the concentration scale where inhibition reaches its midpoint.

Sequence of Nuclear factor NF-kappa-B complex (P19838 1-433 limits assumed): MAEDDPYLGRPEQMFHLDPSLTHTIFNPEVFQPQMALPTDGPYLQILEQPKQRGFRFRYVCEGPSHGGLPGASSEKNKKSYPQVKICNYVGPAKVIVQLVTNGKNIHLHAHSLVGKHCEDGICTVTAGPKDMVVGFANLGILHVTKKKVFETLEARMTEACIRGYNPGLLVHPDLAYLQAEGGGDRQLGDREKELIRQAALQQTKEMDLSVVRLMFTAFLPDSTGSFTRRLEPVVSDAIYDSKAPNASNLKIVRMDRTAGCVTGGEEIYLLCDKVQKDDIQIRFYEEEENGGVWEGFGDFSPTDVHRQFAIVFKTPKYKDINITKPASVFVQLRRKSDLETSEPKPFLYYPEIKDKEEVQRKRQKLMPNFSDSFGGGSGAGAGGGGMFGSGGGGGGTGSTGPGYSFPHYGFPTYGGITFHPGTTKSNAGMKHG
Sequence of Nuclear factor NF-kappa-B complex (Q00653 1-454 limits assumed): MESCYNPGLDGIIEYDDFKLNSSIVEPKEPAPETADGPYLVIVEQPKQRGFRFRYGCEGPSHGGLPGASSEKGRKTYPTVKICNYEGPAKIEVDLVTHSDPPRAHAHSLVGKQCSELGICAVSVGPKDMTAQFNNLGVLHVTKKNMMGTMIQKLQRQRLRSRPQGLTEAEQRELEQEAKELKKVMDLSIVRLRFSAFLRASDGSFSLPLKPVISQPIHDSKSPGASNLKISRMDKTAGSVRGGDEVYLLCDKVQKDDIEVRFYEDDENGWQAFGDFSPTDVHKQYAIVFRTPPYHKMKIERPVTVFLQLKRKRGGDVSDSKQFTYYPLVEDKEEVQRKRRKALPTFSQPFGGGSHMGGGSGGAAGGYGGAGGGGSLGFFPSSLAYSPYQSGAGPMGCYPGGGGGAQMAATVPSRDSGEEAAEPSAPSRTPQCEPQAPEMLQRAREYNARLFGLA
Sequence of Nuclear factor NF-kappa-B complex (Q04206 whole entry): as the sequence (Q04206 whole entry, looked up) above

Regarding `O=C(Nc1ccc(O)cc1)c1cc2ccccc2o1`, the viability at 10 µM in assay [1] was 18%; in assay [4], -31%; in the assay with MDA-MB-231 [5], -32%; in [6], 47%; in the assay with NCI-H23 [7], 25%; with ACHN [8], 10%. Further, the GI50 in assay [2] was 5860 nM; with NCI-H23 [3], 2480 nM; in the assay with ACHN [9], 2740 nM; in the assay on MDA-MB-231 [10], 2200 nM; in [11] it was 2370 nM; in assay [12], 2680 nM. The molecule further showed an inhibition in assay [13] of 62%.
For `S=C(S)N1CCCC1` [PYRROLIDINE DITHIOCARBAMATE], the IC50 in assay [14] is 34500 nM. Besides, the GI50 in [2] was 140 nM; in the assay with NCI-H23 [3], 100 nM; in the assay on ACHN [9], 230 nM; in the assay with MDA-MB-231 [10] it was 160 nM; in assay [11] it was 130 nM; in assay [12], 170 nM.

For the origin of these results see ChEMBL document CHEMBL3425509, “Design, synthesis, and biological evaluation of benzofuran- and 2,3-dihydrobenzofuran-2-carboxylic acid N-(substituted)phenylamide derivatives as anticancer agents and inhibitors of NF-κB” (Bioorg Med Chem Lett, 2015).
